{TEG-Chol} = cholesteryl attached through a triethylene glycol (TEG) linker
How the values were obtained:
HIG-82 cells = experiment: HIG-82 synovial cell proliferation (MTT reduction); assay type: cell-based, rabbit; conditions: 53 μM, 48 hours; for Inhibition of HIG-82 cell proliferation, inhibition (%): MTT
Procedure, shortened: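 Adherent synovial cells at 10×10^5 cells/ml exposed 48 h to […] at 53 μM final. Proliferation measured by MTT reduction read at 570 nm and expressed as percentage inhibition.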

EL-4 cells = experiment: Apoptosis by phosphatidylserine redistribution (annexin V flow cytometry) in EL-4 cells; assay type: cell-based, murine; conditions: 24 hours; for Percentage of positive cells for phosphatidylserine (cells in apoptosis) in EL-4 cells: untreated cells 7%; for Induction of apoptosis in EL-4 cells (in words): translocation of phosphatidylserine, up to 53.0 μM
Procedure: Redistribution of plasma membrane phosphatidylserine is a characteristic of cells undergoing apoptosis (Martin et al., J. Exp. Med., 182:1545, 1995). The redistribution of phosphatidylserine in the plasma membrane during apoptosis was measured by flow cytometry using FITC (fluorescein isothiocyanate)-conjugated annexin V (BD Pharmingen, San Diego, Calif.). MEG-01 cells, a human chronic myelogeneous leukemia cell line positive for the Philadelphia chromosome and having a BCR-ABL gene fusion, were incubated at 2.5×10^5 cells/ml for 48 hours with 5.3, 26.5 and 53.0 μM final concentrations of SEQ ID NO:1, SEQ ID NO:2, SEQ ID NO:5, SEQ ID NO:6 and cholesteryl-TEG phosphoramidite molecule. The percentage of cells in apoptosis after exposure to the SEQ ID NOs:1, 2, 5, 6, or cholesteryl-TEG phosphoramidite treatment is reported in Table 2. The percentage of apoptosis in untreated MEG-01 cells was 12%.
EL-4 cells, a murine T lymphoma cell line, were incubated at 2.5×10^5 cells/ml for 24 hours with 0.53, 5.3 and 53.0 μM concentrations of SEQ ID NO:3, SEQ ID NO:7 or cholesteryl-TEG phosphoramidite. The percentage of cells in apoptosis after exposure to SEQ ID NO:3, SEQ ID NO:7 or cholesteryl-TEG phosphoramidite treatment is reported in Table 3. The percentage of apoptosis in untreated EL-4 cells was 7%.

MDA-MB-231 cells [1] = experiment: MDA-MB-231 xenotransplanted tumors in nude mice (Example 23); assay type: in vivo; conditions: 0.4, 4, 40 mg/kg intravenously every 3 days, 6 doses maximum; versus saline and SEQ ID NO:3; dose-dependent
Procedure: Breast cancer MDA-MB-231 cells are xenotransplanted subcutaneously in nude mice (1×10^7 cells). The mice are divided into 7 groups of 10 mice. After the tumors reach […] in diameter, group 1 mice receive saline, group 2 mice receive 0.4 mg/kg SEQ ID NO:3, group 3 mice receive 4 mg/kg SEQ ID NO:3, group 4 mice receive 40 mg/kg SEQ ID NO:3, group 5 mice receive 0.4 mg/kg SEQ ID NO:7, group 6 mice receive 4 mg/kg SEQ ID NO:7, group 7 mice receive 40 mg/kg SEQ ID NO:7. Treatments are given intravenously every 3 days for 6 doses maximum. Mice are sacrificed when tumor reach 1 cm in diameter, at any sign of distress or at the end of the study (3 months from cell injection). Complete autopsies are performed. Tumor mass, presence of invasion and metastasis are determined.

[2] = system: EL-4 murine T lymphoma cells; experiment: EL-4 lymphoma implanted subcutaneously in C57/BL6 mice; assay type: in vivo; conditions: 1, 10, 100 mg/kg, after 4 weeks of treatment; versus saline and SEQ ID NO:3; dose-dependent
Procedure: EL-4 murine T lymphoma cells are implanted subcutaneously into C57/BL6 mice as previously described (Krawczyk et al., Cancer Immunol. Immunother. 40:347, 1995). The mice are divided into 7 groups of 10 mice. On day 0, group 1 mice receive saline, group 2 mice receive 1 mg/kg SEQ ID NO:3, group 3 mice receive 10 mg/kg SEQ ID NO:3, group 4 mice receive 100 mg/kg SEQ ID NO:3, group 5 mice receive 1 mg/kg SEQ ID NO:7, group 6 mice receive 10 mg/kg SEQ ID NO:7, group 7 mice receive 100 mg/kg SEQ ID NO:7. After 4 weeks of treatment, the mice are sacrificed and tumor mass is determined.

MDA-MB-231 cells [3] = experiment: MDA-MB-231 xenotransplanted tumors in nude mice (Example 22); assay type: in vivo; conditions: 0.5, 5, 50 mg/kg intravenously every 3 days, 6 doses maximum; versus saline and SEQ ID NO:3; dose-dependent
Procedure: MDA-MB-231 cells are xenotransplanted subcutaneously into nude mice. The mice are divided into 7 groups of 10 mice. After the tumors reach 5 mm in diameter, group 1 mice receive saline, group 2 mice receive 0.5 mg/kg SEQ ID NO:3, group 3 mice receive 5 mg/kg SEQ ID NO:3, group 4 mice receive 50 mg/kg SEQ ID NO:3, group 5 mice receive 0.5 mg/kg SEQ ID NO:7, group 6 mice receive 5 mg/kg SEQ ID NO:7, group 7 mice receive 50 mg/kg SEQ ID NO:7. Treatments are given intravenously every 3 days for 6 doses maximum. Mice are sacrificed when tumor reach 1 cm in diameter, at any sign of distress or at the end of the study (3 months from cell injection). Complete autopsies are performed. Tumor mass, presence of invasion and metastasis are determined.

Substance	Inhibition of proliferation of synovial HIG-82 cells (in words) (HIG-82 cells)	Inhibition of HIG-82 cell proliferation, inhibition (%) (HIG-82 cells)	Percentage of positive cells for phosphatidylserine (cells in apoptosis) in EL-4 cells (EL-4 cells; 0.53 μM) [%]	Percentage of positive cells for phosphatidylserine (cells in apoptosis) in EL-4 cells (EL-4 cells; 5.3 μM) [%]	Percentage of positive cells for phosphatidylserine (cells in apoptosis) in EL-4 cells (EL-4 cells; 53.0 μM) [%]	Induction of apoptosis in EL-4 cells (in words) (EL-4 cells)	Tumor mass and metastasis (MDA-MB-231 cells [1])	Tumor mass [2]	Tumor mass (MDA-MB-231 cells [3])
5′ OH-CCACCC(TEG-cholesteryl) 3′ (3' {TEG-Chol}, sugars by position and backbone not given here) [SEQ ID NO:7]	capacity to inhibit the cellular proliferation	53	8	11	49	capacity to induce apoptosis	less tumor mass and metastasis	less tumor mass	less tumor mass
5′ OH-CCACCC-OH 3′ (listed as DNA, chemistry not fully specified) [SEQ ID NO:3]	did not inhibit proliferation	0	7	7	7	neither SEQ ID NO:3 nor cholesteryl-TEG phosphoramidite caused apoptosis			
